Experiment [1] concerns the target T1, soluble portion of human PTP1B (residues 1-321) (Homo sapiens, UniProt P18031).
T1 sequence (P18031 1-321): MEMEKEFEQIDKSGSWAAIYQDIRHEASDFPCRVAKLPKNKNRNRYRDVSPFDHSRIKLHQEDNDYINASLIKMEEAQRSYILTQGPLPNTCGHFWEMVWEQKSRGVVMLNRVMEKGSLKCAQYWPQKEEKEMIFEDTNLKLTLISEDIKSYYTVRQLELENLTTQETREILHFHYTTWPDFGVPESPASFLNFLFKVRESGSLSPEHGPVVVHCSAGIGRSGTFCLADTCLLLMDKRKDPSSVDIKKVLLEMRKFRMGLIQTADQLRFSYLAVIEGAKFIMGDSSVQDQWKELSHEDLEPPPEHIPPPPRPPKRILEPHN
The experiment can be described thus: Steady-state inhibition of PTP1B-catalyzed hydrolysis of pNPP. It is filed as biochemical. The following applies: substrate pNPP; for Ki: 0.1 M NaCl, pH 5, 22° C, N2-purged.

Experiment [2] has as its target PTP1B. The note with it: ref Makinen, M. W. and Zhou, K. I., unpublished observations; cited from earlier work.
Experiment [3] has as its system PTP1B. The following applies: substrate DADEpYLIPQQG; malachite green, 30 min, not steady-state; cited from earlier work.
In experiment [4] the target is T1, soluble portion of human PTP1B (residues 1-321). The format is biochemical. The note with it: substrate hydrolysis, no inhibitor; this study.
The subject of experiment [5] is Rat PTP1 (residues 1–323). The following applies: 0.1 M ionic strength, pH 5.5; cited from earlier work.
For experiment [6], the target named is T1, soluble portion of human PTP1B (residues 1-321). The format is biochemical.
Experiment [7] relates to fused protein construct of glutathione-S-transferase and the full length PTP1B polypeptide chain (435 residues). The following applies: substrate pNPP; cited from earlier work.
Experiment [8] has as its system PTP1B. The following applies: substrate pNPP; cited from earlier work.

Usually Ki stands for a dissociation constant, usually derived from enzyme kinetics or from competition with a known ligand. A word on the Km: it is the concentration of substrate that gives half-maximal velocity. Usually kcat stands for the maximal rate divided by the concentration of active sites.

SMILES strings stand for the structures. Read-outs that look alike come from different tables or passages of the source. A value given as a limit tells only on which side of the number the result lay.

`Cc1[nH]ccc(=O)c1[O-].Cc1[nH]ccc(=O)c1[O-].[O]=[V+2]` [VO(mpp)2, bis(3-hydroxy-2-methyl-4(1H)pyridinonato)oxidovanadium(IV)]: in experiment [1], the mode of inhibition entry was “competitive inhibition” and the Ki turned out to be 38.2 ± 0.5 µM.
Regarding `CC(=O)/C=C(/C)O` [Mg(acac)2], the Ki in experiment [2] was above 600 µM.
Take `CC(=O)/C=C(/C)[O-].CC(=O)/C=C(/C)[O-].[O]=[V+2]` [VO(acac)2, bis(acetylacetonato)oxidovanadium(IV)]: in experiment [3], the mode of inhibition entry was “uncompetitive behavior”.
On to `O=[N+]([O-])c1ccc(OP(=O)(O)O)cc1` [pNPP, para-nitrophenylphosphate], for which the results for the Km in experiment [4] and in experiment [5] were 460 ± 120 µM and 339 ± 16 µM, respectively. The kcat was 62.9 ± 12.0 s⁻¹ in experiment [4] and 69.2 ± 1.1 s⁻¹ in experiment [5].
Regarding `CCc1occc(=O)c1[O-].CCc1occc(=O)c1[O-].[O]=[V+2]` [VO(Et-malto)2, bis(2-ethyl-maltolato)oxidovanadium(IV)], the mode of inhibition result in experiment [1] is reported as “noncompetitive inhibition”; in experiment [6] (substrate EGFR^988-998 (DADEpYLIPQQG)), “noncompetitive”. Also, the Ki in experiment [1] came out at 14.8 ± 1.4 µM; in experiment [6] (substrate EGFR^988–998, 0.1 M NaCl, pH 6, 20° C, N2-purged), 0.14 ± 0.01 µM.
With `Cc1occc(=O)c1[O-].Cc1occc(=O)c1[O-].[O]=[V+2]` [VO(Me-malto)2, bis(2-methyl-maltolato)oxidovanadium(IV)], in experiment [7], the mode of inhibition result is given as “mixed inhibition”.
Consider `CCc1oc2cc(S(=O)(=O)Nc3ccc(S(N)(=O)=O)cc3)ccc2c1C(=O)c1cc(Br)c(O)c(Br)c1` [Compound 2, 3-(3,5-dibromo-4-hydroxy-benzoyl)-2-ethyl-benzofuran-6-sulfonic acid (4-sulfamoyl-phenyl)amide], for which the mode of inhibition entry in experiment [8] is recorded as “noncompetitive inhibition”.

Values taken from PMC5671894 (Journal of biological inorganic chemistry : JBIC : a …, 2017).
